From patent US20260216215A1, “COMPOSITIONS AND METHODS FOR TREATING OR PREVENTING PAIN OR OTHER DISORDERS” (priority 2022, published 2026)

Columns and labels:
[1] = cited from earlier work
[2] = tested on: chemical nociception; conditions: not blocked by naloxone; cited from earlier work
[3] = tested on: menstrual pain; test: Comparison of VAS scores for CBD only, CBG only, PEA only and combination vaginal suppositories (Example 2); format: in vivo, human; conditions: vaginal suppository; for Magnitude of pain reduction from baseline: VAS points
Description: Specifically, the formulations were individually/separately administered, with each single formulation being administered on a separate day of the patient's menstrual period.
Comparison of visual analogue pain scores (VAS scores) for CBD only, CBG only, PEA only and CBD+CBG+PEA combinations delivered using vaginal suppositories.

[4] = tested on: inflammation in experimental rat model; conditions: versus Diclofenac (100 mg/kg), p<0.05; cited from earlier work
[5] = tested on: neuropathic pain; conditions: purified compound; thermal and mechanical hyperalgesia and mechanical allodynia; cited from earlier work

| SMILES | Magnitude of pain reduction from baseline [3] | Duration of effect [3] [h] | Onset of effect [3] [min] | VAS at max effect [3] | further results |
| --- | --- | --- | --- | --- | --- |
| CC(C)=C1CC[C@@H](C)CC1=O [PUL, (R)-5-Methyl-2-(1-methylethylidine) cyclohexanone] |  |  |  |  | Miscibility with organic solvents ([1]; ethanol, diethyl ether and chloroform): miscible; Solubility in water ([1]; water): practically insolubile; Chemical nociception in first and second phase of the formalin test [2]: significantly inhibited |
| CCCCCCCCCCCCCCCC(=O)NCCO [PEA 250 mg, N-Palmitoylethanolamide] | 2 | 6 | 30 | 5 |  |
| COc1cc(CNC(=O)CCCC/C=C/C(C)C)ccc1O [CPF, capsaicin] |  |  |  |  | Anti-inflammatory effects [4]: comparable to diclofenac |
| C=C(C)[C@@H]1CCC(C)=C[C@H]1c1c(O)cc(CCCCC)cc1O [CBD 50 mg, Cannabidiol] | 2 | 5 | 20 | 5 | Relief of neuropathic pain [5]: partially relieve neuropathic pain |
| CCCCCc1cc(O)c(C/C=C(\C)CCC=C(C)C)c(O)c1 [CBG 50 mg, Cannabigerol] | 0 |  |  | 8 |  |
